According to patent US20230240958A1, “COSMETIC COMPOSITION WITH ENHANCED COLOR STABILITY FOR RETINOIC ACID PRECURSOR” (Conopco, Inc., d/b/a UNILEVER, priority 2020, published 2023):

Test: Color stability by LabScan XE (CIELAB L*, a*, b*, ΔE) after storage
Type: physicochemical
Conditions: Examples 3 and 4
Experimental: Generally, ΔE≤10 is acceptable, ΔE between 10 to 20 is negotiable and ΔE>20 is unacceptable. For the b* value, the values represent a blue-yellow component of an object's color, wherein a negative (−) value represents movement into the blue color space while a positive (+) value represents movement into the yellow color space. A b* value of 0 represents a true neutral gray value.
Color stability is determined through the use of LabScan XE equipment (Hunter Associates Laboratory, Inc. Reston, Va.). LabScan XE measures color data. Samples at different storage stages housed in vials or in measurement cells are loaded onto the LabScan XE measurement port. By following the measurement procedure specified in the associated instrument menu and computer software, colors (a*, b* and L*) are measured and calculated to result in a color change data (ΔE) value. b* is the scale of blue-yellow space based on the CIELAB color space model, wherein an increase in b* value indicates the increase in yellow color components, and the decrease of b* value indicates the increase of blue color components.

Structure (SMILES): CCCCCCCCCCCCCC(=O)OC(C)C [isopropyl myristate]
- color stability / ΔE over time, comparison in words: greater color stability
